Series [1] has as its system mouse peritoneal macrophages. In words: Suppression of foaming of macrophages (cholesterol ester synthesis) in vitro. The conditions noted are these: Mus musculus, Peritoneal macrophage, 5 μM, 16 hours, relative to control as 100%, smaller value = more potent suppression, read-out: Rate of CE synthesis (%). It is filed as cell-based, mouse (female ICR). The protocol: Activity of the compounds of the present invention for suppressing the foaming of macrophages
(§1) Activity of the compounds of the present invention for suppressing the foaming of macrophages, which triggers arterial sclerosis, was examined by an in vitro experiment using mouse peritoneal macrophages. 15-Week old female ICR mice (Nippon SLC) were subjected to bleeding by cutting off their cervicalis, and Hanks buffer (Nippon Seiyaku) was injected into their peritoneal cavities. After abdominal regions of the mice were massaged, the buffer was recovered immediately, and then the resulting buffer was centrifuged at 1,000 r.p.m. for five minutes to collect peritoneal macrophages. Then, the collected macrophages were suspended in GTI medium (Wako Pure Chemical Industries), and inoculated onto a 24-well microtiter plate. After the macrophages were cultivated at 37° C. under 5% CO2 for two hours, the culture medium was changed with Dulbecco Modified Eagle Medium (MEM, Nippon Seiyaku). The macrophages were further cultivated at 37° C. under 5% CO2 for 16 hours, and then a test compound and liposomes were added to the culture.
1) Test compound: dissolved in DMSO (Wako Pure Chemical Industries),
PC: Phosphatidylcholine (Funakoshi);
PS: Phosphatidylserine (Funakoshi);
DCP: Dicetylphosphate (Funakoshi);
CHOL: Cholesterol (Sigma)
(§2) After cultivation was further continued at 37° C. under 5% CO2 for 16 hours, lipid fraction was extracted with chloroform and methanol. The extracted lipid fraction was dissolved in isopropyl alcohol, and the produced cholesterol ester (CE) was quantified by an enzymatic luminescence method. Yield of the cholesterol ester was calculated as a relative ratio based on yield of the control as 100% where no test compound was added. Cytotoxicity was examined microscopically by observing morphological alteration of cells. In the tables, compound numbers correspond to those of the compounds of present invention described in the examples.

The test system of series [2] is mouse peritoneal macrophages. In words: Cytotoxicity examined microscopically (morphological alteration of cells). The conditions noted are these: 5 μM, observed microscopically. The series is classed as cell-based, mouse (female ICR). The method, then:
as §1, §2

The structures appear in SMILES notation. Read-outs that look alike come from different tables or passages of the source.

As to `Clc1ccc2sc(SCCCCCSc3nc4ccccc4[nH]3)nc2c1` [Compound A34, 1-(2'-benzimidazolylthio)-5-(2"-(5"-chlorobenzothiazolyl)thio)pentane], the activity at 5 µM in series [1] (Table 3) came to 28%. Further, the Cytotoxicity entry in series [2] (Table 3) was “Not observed”.
The like results for `CCOc1ccc2nc(SCCCCCSc3nc4ccccc4[nH]3)sc2c1` [Compound A35, 1-(2'-benzimidazolylthio)-5-(2"-(6"-ethoxybenzothiazolyl)thio)pentane] were, in that order, 25% and “Not observed”.
The like results for `Cc1ccc2[nH]c(SCCCCCSc3nc4ccccc4s3)nc2c1` [Compound A36] were, in that order, 21% and “Not observed”.
The like results for `c1ccc2[nH]c(SCCCCCSc3nc4ccccc4o3)nc2c1` [Compound A37, 1-(2'-benzimidazolylthio)-5-(2"-benzoxazolylthio)pentane] were, in that order, 13% and “Not observed”.
Regarding `Cc1cc2nc(SCCCCCSc3nc4ccccc4o3)[nH]c2cc1C` [Compound A38], the activity at 5 µM in series [1] (Table 3) is 16%. Further, in series [2] (Table 3), the Cytotoxicity entry is recorded as “Not observed”.
The like results for `c1ccc(-c2ccc3oc(SCCCCCSc4nc5ccccc5[nH]4)nc3c2)cc1` [Compound A39, 1-(2'-benzimidazolylthio)-5-(2"-(5"-phenylbenzoxazolyl)thio)pentane] were, in that order, 24% and “Not observed”.
As for `c1ccc2[nH]c(SCCCCCSc3ncc[nH]3)nc2c1` [Compound B1, 1-(2'-benzimidazolylthio)-5-(2"-imidazolylthio)pentane], the activity at 5 µM in series [1] (Table 4) turned out to be 41%. For the same compound, the Cytotoxicity result in series [2] (Table 4) was “Not observed”.
Take `Cn1ccnc1SCCCCCSc1nc2ccccc2[nH]1` [Compound B2]: the activity at 5 µM in series [1] (Table 4) was 16%. In addition, the Cytotoxicity result in series [2] (Table 4) is “Not observed”.
In the case of `c1ccc(-n2ccnc2SCCCCCSc2nc3ccccc3[nH]2)cc1` [Compound B3], the activity at 5 µM in series [1] (Table 4) turned out to be 34%. Moreover, the Cytotoxicity entry in series [2] (Table 4) was “Not observed”.
The like results for `c1ccc(-c2cnc(SCCCCCSc3nc4ccccc4[nH]3)n2-c2ccccc2)cc1` [Compound B4] were, in that order, 47% and “Not observed”.
The like results for `c1ccc2[nH]c(SCCCCCSc3nnc[nH]3)nc2c1` [Compound B5] were, in that order, 14% and “Not observed”.
The like results for `Cn1cnnc1SCCCCCSc1nc2ccccc2[nH]1` [Compound B6] were, in that order, 22% and “Not observed”.
Turning to `c1ccc(-n2cnnc2SCCCCCSc2nc3ccccc3[nH]2)cc1` [Compound B7], in series [1] (Table 4), the activity at 5 µM is 21%. The Cytotoxicity entry in series [2] (Table 4) was “Not observed”.
On to `Cc1nnc(SCCCCCSc2nc3ccccc3[nH]2)n1C` [Compound B8], for which the activity at 5 µM in series [1] (Table 4) was determined as 24%. The Cytotoxicity result in series [2] (Table 4) is on record as “Not observed”.
The like results for `CC(=O)Nc1nnc(SCCCCCSc2nc3ccccc3[nH]2)n1C` [Compound B9] were, in that order, 35% and “Not observed”.
The like results for `Cn1nnnc1SCCCCCSc1nc2ccccc2[nH]1` [Compound B10] were, in that order, 32% and “Not observed”.
The like results for `CCCCCCCCn1nnnc1SCCCCCSc1nc2ccccc2[nH]1` [Compound B11] were, in that order, 18% and “Not observed”.
Take `c1ccc(-n2nnnc2SCCCCCSc2nc3ccccc3[nH]2)cc1` [Compound B12]: in series [1] (Table 4), the activity at 5 µM came to 14%. The Cytotoxicity entry in series [2] (Table 4) is “Not observed”.
For the compound `Cn1c(=O)c2nc(SCCCCCSc3nc4ccccc4[nH]3)[nH]c2n(C)c1=O` [Compound B13], in series [1] (Table 4), the activity at 5 µM amounted to 26%. Besides, the Cytotoxicity entry in series [2] (Table 4) is “Not observed”.
The like results for `Oc1ncnc2[nH]c(SCCCCCSc3nc4ccccc4[nH]3)nc12` [Compound B14] were, in that order, 48% and “Not observed”.
The like results for `c1ccc2[nH]c(SCCCCCSC3=NCCS3)nc2c1` [Compound B15] were, in that order, 11% and “Not observed”.
The like results for `CC(=O)Nc1nnc(SCCCCCSc2nc3ccccc3[nH]2)s1` [Compound B17] were, in that order, 18% and “Not observed”.
For the compound `CN(C)C(=O)c1nnc(SCCCCCSc2nc3ccccc3[nH]2)s1` [Compound B18], in series [1] (Table 4), the activity at 5 µM was 35%. In series [2] (Table 4), the Cytotoxicity result is “Not observed”.
The like results for `CSc1nnc(SCCCCCSc2nc3ccccc3[nH]2)s1` [Compound B19] were, in that order, 21% and “Not observed”.
The like results for `CN(C)CCSc1nnc(SCCCCCSc2nc3ccccc3[nH]2)s1` [Compound B20] were, in that order, 24% and “Not observed”.
The like results for `c1ccc2[nH]c(SCCCCCSc3nnc(SCCn4ccnc4)s3)nc2c1` [Compound B21] were, in that order, 11% and “Not observed”.
Take `S=c1sc(SCCCCCSc2nc3ccccc3[nH]2)nn1-c1ccccc1` [Compound B22]: in series [1] (Table 4), the activity at 5 µM amounted to 21%. Moreover, the Cytotoxicity entry in series [2] (Table 4) is “Not observed”.
The like results for `CC1(C)COC(SCCCCCSc2nc3ccccc3[nH]2)=N1` [Compound B23] were, in that order, 38% and “Not observed”.
The like results for `c1ccc2[nH]c(SCCCCCSc3nnc(-c4ccncc4)o3)nc2c1` [Compound B24] were, in that order, 9.5% and “Not observed”.
The like results for `Cc1nnc(SCCCCCSc2nc3ccccc3[nH]2)o1` [Compound B25] were, in that order, 41% and “Not observed”.
For the compound `c1ccc(-c2nnc(SCCCCCSc3nc4ccccc4[nH]3)o2)cc1` [Compound B26], in series [1] (Table 4), the activity at 5 µM stood at 12%. Moreover, in series [2] (Table 4), the Cytotoxicity entry was “Not observed”.
The like results for `c1ccc(-c2noc(SCCCCCSc3nc4ccccc4[nH]3)n2)cc1` [Compound B27] were, in that order, 15% and “Not observed”.
The like results for `c1ccc2[nH]c(SCCCCCSc3ccncc3)nc2c1` [Compound B28] were, in that order, 7.6% and “Not observed”.
The like results for `c1ccc(SCCCCSc2nc3ccccc3[nH]2)nc1` [Compound B29] were, in that order, 14% and “Not observed”.
As to `c1ccc(SCCCCCSc2nc3ccccc3[nH]2)nc1` [Compound B30, 5-(2'-Benzimidazolylthio)-1-(2"-pyridylthio)pentane], the activity at 5 µM in series [1] (Table 4) was determined as 9%. Also, the Cytotoxicity result in series [2] (Table 4) is “Not observed”.
In the case of `c1ccc(SCCCCCCSc2nc3ccccc3[nH]2)nc1` [Compound B31], in series [1] (Table 4), the activity at 5 µM is 27%. Also, the Cytotoxicity result in series [2] (Table 4) is “Not observed”.
Take `c1ccc(SCCCCCCCCSc2nc3ccccc3[nH]2)nc1` [Compound B32]: in series [1] (Table 4), the activity at 5 µM was 37%. In addition, the Cytotoxicity entry in series [2] (Table 4) is “Not observed”.
The like results for `Cc1cc2nc(SCCCCCSc3ccccn3)[nH]c2cc1C` [Compound B33] were, in that order, 18% and “Not observed”.
The like results for `COc1ccc2[nH]c(SCCCCCSc3ccccn3)nc2c1` [Compound B34] were, in that order, 37% and “Not observed”.
The like results for `Cc1ccc2[nH]c(SCCCCCSc3ccccn3)nc2c1` [Compound B35] were, in that order, 46% and “Not observed”.
Regarding `CCOC(=O)c1ccc2[nH]c(SCCCCCSc3ccccn3)nc2c1` [Compound B36], in series [1] (Table 4), the activity at 5 µM was determined as 26%. Moreover, the Cytotoxicity result in series [2] (Table 4) is given as “Not observed”.
The like results for `CCC(=O)Nc1ccc2[nH]c(SCCCCCSc3ccccn3)nc2c1` [Compound B37] were, in that order, 20% and “Not observed”.
The like results for `CS(=O)(=O)Nc1ccc2[nH]c(SCCCCCSc3ccccn3)nc2c1` [Compound B38] were, in that order, 22% and “Not observed”.
The like results for `CN(C)C(=O)c1ccc2[nH]c(SCCCCCSc3ccccn3)nc2c1` [Compound B39] were, in that order, 28% and “Not observed”.
`[O-][n+]1ccccc1SCCCCCSc1nc2ccccc2[nH]1` [Compound B40]: the activity at 5 µM in series [1] (Table 4) stood at 25%. In addition, the Cytotoxicity entry in series [2] (Table 4) is reported as “Not observed”.
The like results for `Cc1ccnc(SCCCCCSc2nc3ccccc3[nH]2)c1` [Compound B41] were, in that order, 19% and “Not observed”.
The like results for `O=[N+]([O-])c1ccnc(SCCCCCSc2nc3ccccc3[nH]2)c1` [Compound B42] were, in that order, 12% and “Not observed”.
